Target: Voltage-gated inwardly rectifying potassium channel KCNH2 (Homo sapiens, UniProt Q12809)
Experiment: hERG Inhibition Assay: Compounds were solubilised to 100 mM in DMSO before dilution in HBPS to 300 μM. 6-Point concentration-response curves were generated using 3.16-fold serial dilutions from the top test concentration. Procedure: Electrophysiological recordings were made from a Chinese Hamster Ovary cell line stably expressing the full-length hERG potassium channel. Single cell ionic currents were measured in whole-cell patch clamp configuration at room temperature (21-23° C.) using the QPatch HTX platform (Sophion). Intracellular solution contained (mM): 120 KF, 20 KCl, 10 EGTA, 10 HEPES and was buffered to pH 7.3. The extracellular solution (HEPES-buffered physiological saline, HBPS) contained (mM): 145 NaCl, 4 KCl, 2 CaCl2, 1 MgCl2, 10 HEPES, 10 glucose, buffered to pH7.4. Cells were clamped at a holding potential of −80 mV. Cells were stepped to +20 mV for 2 s then −40 mV for 3s before returning to the holding potential. This sweep was repeated 10 times at 10 s intervals. hERG currents were measured from the tail step and referenced to the holding current.

Chain of Voltage-gated inwardly rectifying potassium channel KCNH2 (Q12809 whole entry): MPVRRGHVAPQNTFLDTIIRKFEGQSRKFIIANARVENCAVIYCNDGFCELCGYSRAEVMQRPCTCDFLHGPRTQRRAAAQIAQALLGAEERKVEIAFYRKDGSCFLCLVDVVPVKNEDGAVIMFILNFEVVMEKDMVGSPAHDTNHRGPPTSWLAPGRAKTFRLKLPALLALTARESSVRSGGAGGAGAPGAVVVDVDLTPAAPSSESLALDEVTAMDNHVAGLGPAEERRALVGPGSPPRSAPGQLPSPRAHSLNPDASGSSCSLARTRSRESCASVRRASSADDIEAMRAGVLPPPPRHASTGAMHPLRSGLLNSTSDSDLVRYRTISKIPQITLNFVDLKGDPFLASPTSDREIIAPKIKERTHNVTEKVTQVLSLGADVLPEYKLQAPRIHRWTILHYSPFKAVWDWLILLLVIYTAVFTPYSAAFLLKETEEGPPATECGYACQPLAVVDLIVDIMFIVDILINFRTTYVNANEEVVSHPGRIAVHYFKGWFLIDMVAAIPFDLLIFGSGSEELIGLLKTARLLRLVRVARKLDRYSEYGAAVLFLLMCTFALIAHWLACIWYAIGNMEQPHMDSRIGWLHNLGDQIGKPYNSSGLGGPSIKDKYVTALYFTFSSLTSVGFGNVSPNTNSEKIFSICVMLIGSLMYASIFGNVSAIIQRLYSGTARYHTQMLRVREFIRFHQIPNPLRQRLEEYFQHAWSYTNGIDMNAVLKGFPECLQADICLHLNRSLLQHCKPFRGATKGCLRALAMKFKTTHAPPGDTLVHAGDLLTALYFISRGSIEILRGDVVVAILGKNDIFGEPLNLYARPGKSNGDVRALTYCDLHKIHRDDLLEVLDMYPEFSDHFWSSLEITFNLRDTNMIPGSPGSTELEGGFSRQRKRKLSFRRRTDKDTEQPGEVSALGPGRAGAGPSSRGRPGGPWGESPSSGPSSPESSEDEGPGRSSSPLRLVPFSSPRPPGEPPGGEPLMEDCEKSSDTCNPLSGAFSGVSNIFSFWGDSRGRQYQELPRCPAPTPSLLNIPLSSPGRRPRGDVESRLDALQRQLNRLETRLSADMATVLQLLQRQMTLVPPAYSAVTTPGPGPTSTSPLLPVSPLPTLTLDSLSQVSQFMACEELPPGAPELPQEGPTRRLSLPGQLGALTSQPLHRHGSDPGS

Cn1c(=O)cnc2cc(F)c(OCCNC[C@H]3CN(c4cnc5c(n4)NC(=O)CO5)C(=O)O3)nc21
IC50: 98 µM

— ChEMBL document CHEMBL5729608, “Oxazolidinone antibiotic compounds and process of preparation” (2023)
